The subject of experiment [1] is S6 Ribosomal Protein phosphorylation Ser235/236 in TSC1 null mouse embryo fibroblast (MEF) cells. Put plainly: Reverse protein array, S6 Ribosomal Protein phosphorylation in TSC1 null MEF cells. Conditions: 1 h, TSC1-/- MEFs, 60 minutes. In kind it is cell-based. Here is the method:
TSC1−/− MEFs cells (provided by D. Kwiatkowski), were cultivated in Dulbecco's modified Eagle's medium (DMEM high Glucose, GIBCO, cat. No. 41956-039) supplemented with 10% heat inactivated fetal bovine calf serum (Amimed, cat. No. 2-01F16-I), 1% L-Glutamine (Invitrogen, cat. No. 25030-02), 1% penicillin-streptomycin (GIBCO, cat. No. 15140-114) at 37° C. in a 5% CO2 and 95% relative humidity atmosphere incubator.
The TSC1−/− cells were trypsinized and counted with a CASY TT cell counter (Schärfe System GmbH, Reutlingen Germany). The cells were diluted in fresh DMEM complete medium and 0.75×10^4 cells/150 μl/well seeded in 96-well TPP-tissue culture plates (TPP, cat. No. 92096). The plates were incubated at 37° C. and 5% CO2 under humidified condition for at least 20 h. Working solutions were prepared freshly as serial 8 step dilutions (vol/vol) in DMSO on the day of the experiment. The working solutions were further diluted 1/5000 in cell culture medium to get final compound concentrations of […]. The final DMSO concentration was kept constant at 0.02%. cell culture medium containing 0.02% DMSO was used as vehicle treatment control. Post incubation, the cells were treated with the serial compound dilution. 50 μl of the compound medium mixture was added to the wells containing cells and 150 μl DMEM medium and incubated for 60 minutes (37° C., 5% CO2). After 60 minutes of incubation, the medium mixture was quickly removed by aspiration. For cell lysis, a mixture of 10% CLB1 CeLyA lysis buffer (Zeptosens, cat. No. 9000), 90% CSBL1 CeLyA spotting buffer (Zeptosens, cat. No. 9020) was freshly prepared and supplemented with 1% Octyl β-D-glucopyranoside (SIGMA, cat. No. 08001-5G) and 1 mM Na-Orthovanadate (Sigma, cat No. S-6508). 50 μl of the described lysis buffer mix was added to each well, followed by 10 minutes of incubation on ice. After an additional freeze-thaw cycle, another 50 μl of the lysis buffer mix without Octyl β-D-glucopyranoside was added to the wells, and 90 μl of the cell lysate was transferred to a 96-well V-bottom plate (Fisher Scientific, cat. No. 6067Y), followed by a centrifugation step (5 min, 1500 rpm at 19° C. in an Eppendorf 5810R centrifuge) to remove the unlysed cell debris.
The spotting of the chips follows the previous described method.
The signal detection and the data analysis follows the previous described method using the pS6 ribosomal protein Ser235/236 (CST, cat. No. #2211) as a primary antibody.

Another experiment concerns the target T1, mTOR (Homo sapiens, UniProt P42345).
T1 construct: purchased Invitrogen Corporation (Carlsbad/Calif., USA) PV4753
Put plainly: Biochemical assay for m-TOR by TR-FRET. Put shortly:
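mTOR (0.5 nM) phosphorylates GFP-4EBP1 (400 nM) with 8 μM ATP at rt in 50 mM HEPES pH 7.5, 10 mM MnCl2, 50 mM NaCl, 1 mM EGTA, 1 mM DTT; compounds 0.003–10 μM final. EDTA stop with Tb-anti-p4EBP1[pT46] antibody (0.5 nM); TR-FRET read after 15 min against no-enzyme and vehicle controls.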

pIC50: −log10 of the molar value. Read-outs that look alike come from different tables or passages of the source.

T1 sequence (P42345 1360-2549 limits assumed): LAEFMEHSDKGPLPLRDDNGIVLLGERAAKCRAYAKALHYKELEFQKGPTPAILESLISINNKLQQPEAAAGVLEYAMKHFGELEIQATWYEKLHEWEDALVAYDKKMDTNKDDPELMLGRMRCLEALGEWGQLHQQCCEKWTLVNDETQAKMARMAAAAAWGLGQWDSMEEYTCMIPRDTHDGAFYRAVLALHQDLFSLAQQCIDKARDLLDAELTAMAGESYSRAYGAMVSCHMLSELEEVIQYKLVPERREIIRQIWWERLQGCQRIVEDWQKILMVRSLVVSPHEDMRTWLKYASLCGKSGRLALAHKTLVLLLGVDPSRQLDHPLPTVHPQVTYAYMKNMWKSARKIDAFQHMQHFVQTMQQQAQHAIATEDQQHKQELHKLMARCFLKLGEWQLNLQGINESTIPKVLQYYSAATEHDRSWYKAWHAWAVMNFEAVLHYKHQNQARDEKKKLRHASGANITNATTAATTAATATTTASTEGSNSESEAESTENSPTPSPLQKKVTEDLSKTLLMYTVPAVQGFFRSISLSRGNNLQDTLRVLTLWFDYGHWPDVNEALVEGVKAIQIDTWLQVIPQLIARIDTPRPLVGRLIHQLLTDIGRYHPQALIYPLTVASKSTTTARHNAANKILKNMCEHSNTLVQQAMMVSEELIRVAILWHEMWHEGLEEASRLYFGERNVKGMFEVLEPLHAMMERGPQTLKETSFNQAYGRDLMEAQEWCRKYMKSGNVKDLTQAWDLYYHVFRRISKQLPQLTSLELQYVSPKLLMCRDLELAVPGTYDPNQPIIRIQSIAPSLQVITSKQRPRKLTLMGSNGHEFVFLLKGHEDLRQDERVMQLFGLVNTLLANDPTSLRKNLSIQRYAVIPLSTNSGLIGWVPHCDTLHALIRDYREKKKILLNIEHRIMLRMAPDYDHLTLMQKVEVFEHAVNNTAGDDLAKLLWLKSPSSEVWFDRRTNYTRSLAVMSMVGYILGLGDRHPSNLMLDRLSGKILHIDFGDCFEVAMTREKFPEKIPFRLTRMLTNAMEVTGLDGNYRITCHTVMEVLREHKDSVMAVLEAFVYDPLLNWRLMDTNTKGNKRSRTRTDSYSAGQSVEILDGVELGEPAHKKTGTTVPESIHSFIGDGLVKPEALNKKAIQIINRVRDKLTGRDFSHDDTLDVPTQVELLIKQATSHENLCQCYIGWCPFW

In the case of `COc1ncccc1-n1c(=O)n(C)c2cnc3ccc(-c4cnc5[nH]ccc5c4)cc3c21` [Example 1.2, 1-(2-Methoxy-pyridin-3-yl)-3-methyl-8-(1H-pyrrolo[2,3-b]pyridin-5-yl)-1,3-dihydro-imidazo[4,5-c]quinolin-2-one], the figures for the pIC50 (in experiment [1] (read-out: p-S6); at mTOR (read-out: mTOR/IC50)) were 8.58 and 8.40, respectively. For `COc1ncccc1-n1c(=O)n(C)c2cnc3ccc(-c4ccc(C(N)=O)cc4)cc3c21` [Example 1.6, 4-[1-(2-Methoxy-pyridin-3-yl)-3-methyl-2-oxo-2,3-dihydro-1H-imidazo[4,5-c]quinolin-8-yl]-benzamide] the same measures were 7.66 and 8.00. For `Cc1ncccc1-n1c(=O)n(C)c2cnc3ccc(-c4ccc(C(N)=O)cc4)cc3c21` [Example 2.3, 4-[3-Methyl-1-(2-methyl-pyridin-3-yl)-2-oxo-2,3-dihydro-1H-imidazo[4,5-c]quinolin-8-yl]-benzamide] the same measures were 7.25 and 7.96. Consider `CCOc1ncc(-c2ccc3ncc4c(c3c2)n(-c2cccnc2C)c(=O)n4C)cn1` [Example 2.5, 8-(2-Ethoxy-pyrimidin-5-yl)-3-methyl-1-(2-methyl-pyridin-3-yl)-1,3-dihydro-imidazo[4,5-c]quinolin-2-one], for which the pIC50 in experiment [1] (read-out: p-S6) is 6.63; on mTOR (read-out: mTOR/IC50) it was 6.78.

In the case of `Cc1ncccc1-n1c(=O)n(C)c2cnc3ccc(-c4ccc(CO)nc4)cc3c21` [Example 2.6, 8-(6-Hydroxymethyl-pyridin-3-yl)-3-methyl-1-(2-methyl-pyridin-3-yl)-1,3-dihydro-imidazo[4,5-c]quinolin-2-one], the pIC50 was 7.18 in experiment [1] (read-out: p-S6) and 6.98 on mTOR (read-out: mTOR/IC50).

For the compound `Cc1ncccc1-n1c(=O)n(C)c2cnc3ccc(-c4ccc(N)nc4)cc3c21` [Example 2.7, 8-(6-Amino-pyridin-3-yl)-3-methyl-1-(2-methyl-pyridin-3-yl)-1,3-dihydro-imidazo[4,5-c]quinolin-2-one], the pIC50 is 7.91 in experiment [1] (read-out: p-S6) and 7.74 on mTOR (read-out: mTOR/IC50). On the same counts, the results for `Cc1ncccc1-n1c(=O)n(C)c2cnc3ccc(-c4ccc(OCCCN(C)C)nc4)cc3c21` [Example 2.10, 8-[6-(3-Dimethylamino-propoxy)-pyridin-3-yl]-3-methyl-1-(2-methyl-pyridin-3-yl)-1,3-dihydro-imidazo[4,5-c]quinolin-2-one] are 6.80 and 6.22.

As to `Cc1ncccc1-n1c(=O)n(C)c2cnc3ccc(-c4cnc(N)c(C(F)(F)F)c4)cc3c21` [Example 2.11, 8-(6-Amino-5-trifluoromethyl-pyridin-3-yl)-3-methyl-1-(2-methyl-pyridin-3-yl)-1,3-dihydro-imidazo[4,5-c]quinolin-2-one], the results for the pIC50 (in experiment [1] (read-out: p-S6); on mTOR (read-out: mTOR/IC50)) were 8.63 and 7.80, respectively.

`COc1ccc(-c2ccc3ncc4c(c3c2)n(-c2cccnc2C)c(=O)n4C)cn1` [Example 2.12, 8-(6-Methoxy-pyridin-3-yl)-3-methyl-1-(2-methyl-pyridin-3-yl)-1,3-dihydro-imidazo[4,5-c]quinolin-2-one]: the pIC50 in experiment [1] (read-out: p-S6) was 7.74; at mTOR (read-out: mTOR/IC50) it was 7.13.

For `CNc1ccc(-c2ccc3ncc4c(c3c2)n(-c2cccnc2C)c(=O)n4C)cn1` [Example 2.13, 3-Methyl-8-(6-methylamino-pyridin-3-yl)-1-(2-methyl-pyridin-3-yl)-1,3-dihydro-imidazo[4,5-c]quinolin-2-one], the pIC50 was 8.56 in experiment [1] (read-out: p-S6) and 7.72 at mTOR (read-out: mTOR/IC50). For `Cc1ncccc1-n1c(=O)n(C)c2cnc3ccc(-c4cnc(N(C)C)nc4)cc3c21` [Example 2.15, 8-(2-Dimethylamino-pyrimidin-5-yl)-3-methyl-1-(2-methyl-pyridin-3-yl)-1,3-dihydro-imidazo[4,5-c]quinolin-2-one] the same measures were 7.17 and 7.28. With `Cc1ncccc1-n1c(=O)n(C)c2cnc3ccc(-c4cncc(NC(C)C)c4)cc3c21` [Example 2.24, 8-(5-Isopropylamino-pyridin-3-yl)-3-methyl-1-(2-methyl-pyridin-3-yl)-1,3-dihydro-imidazo[4,5-c]quinolin-2-one], the pIC50 in experiment [1] (read-out: p-S6 IC50) is 8.40; on mTOR (read-out: EPK_mTOR/IC50), 7.54. Consider `CNc1cncc(-c2ccc3ncc4c(c3c2)n(-c2cccnc2C)c(=O)n4C)c1` [Example 2.26, 3-Methyl-8-(5-methylamino-pyridin-3-yl)-1-(2-methyl-pyridin-3-yl)-1,3-dihydro-imidazo[4,5-c]quinolin-2-one], for which the pIC50 in experiment [1] (read-out: p-S6 IC50) was 8.22; on mTOR (read-out: EPK_mTOR/IC50) it was 7.66. On the same counts, the results for `COc1cc(-c2ccc3ncc4c(c3c2)n(-c2cccnc2C)c(=O)n4C)cnc1C(OC)OC` [Example 2.27, 8-(6-Dimethoxymethyl-5-methoxy-pyridin-3-yl)-3-methyl-1-(2-methyl-pyridin-3-yl)-1,3-dihydro-imidazo[4,5-c]quinolin-2-one] are 7.27 and 6.77. Turning to `CCOc1cc(-c2ccc3ncc4c(c3c2)n(-c2cccnc2C)c(=O)n4C)cnc1COC` [Example 2.28, 8-(5-Ethoxy-6-methoxymethyl-pyridin-3-yl)-3-methyl-1-(2-methyl-pyridin-3-yl)-1,3-dihydro-imidazo[4,5-c]quinolin-2-one], the figures for the pIC50 (in experiment [1] (read-out: p-S6 IC50); at mTOR (read-out: EPK_mTOR/IC50)) were 7.85 and 7.24, respectively.

`Cc1ncccc1-n1c(=O)n(C)c2cnc3ccc(-c4cncc(N5CCC5)c4)cc3c21` [Example 2.29, 8-(5-Azetidin-1-yl-pyridin-3-yl)-3-methyl-1-(2-methyl-pyridin-3-yl)-1,3-dihydro-imidazo[4,5-c]quinolin-2-one]: the pIC50 in experiment [1] (read-out: p-S6 IC50) is 8.30; at mTOR (read-out: EPK_mTOR/IC50), 7.37. On to `CCNc1cc(-c2ccc3ncc4c(c3c2)n(-c2cccnc2C)c(=O)n4C)cnc1CO` [Example 2.31, 8-(5-Ethylamino-6-hydroxymethyl-pyridin-3-yl)-3-methyl-1-(2-methyl-pyridin-3-yl)-1,3-dihydro-imidazo[4,5-c]quinolin-2-one], for which the figures for the pIC50 (in experiment [1] (read-out: p-S6 IC50); at mTOR (read-out: EPK_mTOR/IC50)) were 7.68 and over 8.52, respectively. On the same counts, the results for `CNc1cc(-c2ccc3ncc4c(c3c2)n(-c2cccnc2C)c(=O)n4C)cnc1C` [Example 2.32, 3-Methyl-8-(6-methyl-5-methylamino-pyridin-3-yl)-1-(2-methyl-pyridin-3-yl)-1,3-dihydro-imidazo[4,5-c]quinolin-2-one] are 8.70 and 8.15.

Take `CCOc1ccc(-c2ccc3ncc4c(c3c2)n(-c2cnccc2C)c(=O)n4C)cn1` [Example 4.2, 8-(6-Ethoxy-pyridin-3-yl)-3-methyl-1-(4-methyl-pyridin-3-yl)-1,3-dihydro-imidazo[4,5-c]quinolin-2-one]: in experiment [1] (read-out: p-S6), the pIC50 is 6.34.

With `CCOc1ccc(-c2ccc3ncc4c(c3c2)n(-c2ccc(N3CCNCC3)nc2OC)c(=O)n4C)cn1` [Example 9.1, 8-(6-Ethoxy-pyridin-3-yl)-1-(2-methoxy-6-piperazin-1-yl-pyridin-3-yl)-3-methyl-1,3-dihydro-imidazo[4,5-c]quinolin-2-one], the pIC50 in experiment [1] (read-out: p-S6) was 7.87. On the same count and under the same terms, the result for `COc1nc(N2CCNCC2)ccc1-n1c(=O)n(C)c2cnc3ccc(-c4cnc(N)c(C(F)(F)F)c4)cc3c21` [Example 9.2, 8-(6-Amino-5-trifluoromethyl-pyridin-3-yl)-1-(2-methoxy-6-piperazin-1-yl-pyridin-3-yl)-3-methyl-1,3-dihydro-imidazo[4,5-c]quinolin-2-one] reads 8.47.

The values above are taken from patent publication US20100311714A1, “1H-IMIDAZO[4,5-c]QUINOLINONE COMPOUNDS” (priority 2009, published 2010).
